Data reported in patent US5317095A, “Alpha-D-glycosyl kasugamycin, its preparation, and antibacterial agent containing the same” (Hayashibara Biochemical Laboratories, Inc., priority 1992, dated 1994).
Like-named read-outs stand apart in the source and are kept apart here.

Tests used:
[1] = system: α-glucosidase derived from pig liver; assay: Hydrolysis by α-glucosidase derived from pig liver; assay type: in vitro ADME; details: pig liver enzyme; forms 1 mole of D-glucose per 1 mole of kasugamycin
[2] = system: α-glucosidase derived from seeds of rice plant; assay: Hydrolysis by α-glucosidase derived from seeds of rice plant; assay type: in vitro ADME; details: enzyme from seeds of rice plant; forms 1 mole of D-glucose per 1 mole of kasugamycin
[3] = pH Stability test of α-D-glucosyl kasugamycin; assay type: physicochemical; details: 120° C. for 1 hour; for Residue (%) / remaining at 1 h: mean, n = 5; for remaining at 1 h: buffer, read-out: Residue (%)
Procedure: Fifty μl of 2.56 w/v % aqueous solution of α-D-glucosyl kasugamycin (purity: about 80%), which was prepared according to the method described in Example 3 was mixed with 450 μl of a buffer adjusted to pH 2.0, 4.0, 6.0, 8.0 or 10.0. The mixture was kept at 120° C. for 1 hour in a well-closed container. As the buffer was used 1M HCl- Sodium acetate buffer (pH 2.0 or pH 4.0), 1M acetic acid buffer (pH 6.0), 1M Tris-HCl buffer (pH 8.0) or 1M NH4 OH- NH4 Cl buffer (pH 10.0).
Each of thus obtained mixtures was cooled with a running water. Then, the mixture was diluted 5 times with 0.5M Na3 PO4 -H3 PO4 (pH 6.0). Successively, the diluted mixture subjected to HPLC under the following conditions.
As a comparison was used a sample obtained by diluting 5 times a mixture of 50 μl of 2.56 w/v % aqueous solution of α-D-glucosyl kasugamycin and 450 μl of deionized water with 0.5M Na3 PO4 -H3 PO4 (pH 6.0).
Residue was calculated on the basis of a ratio of the peak area of α-D-glucosyl kasugamycin in each treated mixture to that in the sample as a comparison.
Also, 1.0 w/v % aquous solution of kasugamycin purchased from Hokko Kagaku Kogyo Kabushiki Kaisha was treated in the same manner as described in the case of α-D-glucosyl kasugamycin. Residue in each pH condition was calculated.
Column: ODS-M (commercially avairable from Shimazu Techno Research Co., Ltd.)
Eluate: Acetonitrile/Water*=8/92 (v/v) *0.2M CH3 (CH2)5 SO3 Na (pH was not adjusted) 0.005M Na3 PO4 -H3 PO4 (pH 6.0)

[4] = system: α-glucosidase derived from microorganisms of the genus Mucor; assay: Hydrolysis by α-glucosidase derived from microorganisms of the genus Mucor; assay type: in vitro ADME; details: enzyme from genus Mucor; forms 1 mole of D-glucose per 1 mole of kasugamycin
[5] = Stability in aqueous solution; assay type: physicochemical; details: pH in the range from 3.0 to 7.0
Solubility in solvents = assay type: physicochemical
dd mice = assay: Acute toxicity; assay type: in vivo; details: peritoneally administered; 7 week-old dd mice; highest dose 3,000 mg per kg body weight
Description: The α-D-glucosyl kasugamycin was peritoneally administered to 7 week-old dd mice for acute toxicity test.

Molecule: α-D-glucosyl kasugamycin
- Hydrolysis by α-glucosidase [1]: readily hydrolyed
- Hydrolysis by α-glucosidase [2]: readily hydrolyed
- Residue (%) ([3]; pH 2.0): 76.2%
- Residue (%) ([3]; pH 4.0): 75.2%
- Residue (%) ([3]; pH 6.0): 26.9%
- times stabler than kasugamycin ([3]; pH 8.0, 17.6/9.5): approximately 1.85 times
- Residue (%) ([3]; pH 8.0): 17.6%
- Residue (%) ([3]; pH 10.0): trace
- Hydrolysis by α-glucosidase [4]: readily hydrolyed
- Stability in an aqueous solution [5]: excellently stable
- Solubility in 0.1N hydrochloric acid (Solubility in solvents; 0.1N hydrochloric acid): readily soluble
- Solubility in 0.1N sodium hydroxide (Solubility in solvents; 0.1N sodium hydroxide): readily soluble
- Solubility in acetic acid (Solubility in solvents; acetic acid): readily soluble
- Solubility in chloroform (Solubility in solvents; chloroform): insoluble
- Solubility in ethanol (Solubility in solvents; ethanol): substantially insoluble
- Solubility in ethyl acetate (Solubility in solvents; ethyl acetate): insoluble
- Solubility in methanol (Solubility in solvents; methanol): substantially insoluble
- Solubility in water (Solubility in solvents; water): readily soluble
- solubility in water relative to that of kasugamycin (Solubility in solvents; water, room temperature, vs kasugamycin): not less than fivefold
- deaths (acute toxicity) (dd mice): not observed any deaths

Molecule: C[C@H]1O[C@H](O[C@H]2[C@H](O)[C@@H](O)[C@@H](O)[C@H](O)[C@@H]2O)[C@@H](N)C[C@@H]1NC(=N)C(=O)O [Kasugamycin, kasugamycin]
- remaining at 1 h ([3]; pH 2.0): 76%
- remaining at 1 h ([3]; pH 4.0): 72.1%
- remaining at 1 h ([3]; pH 6.0): 26.8%
- remaining at 1 h ([3]; pH 8.0): 9.5%
- Residue (%) ([3]; pH 10.0): trace
